In patent US4374146A, “Topical inflammatory pharmaceutical formulations” (Burroughs Wellcome Co., priority 1980, dated 1983):
Like-named read-outs stand apart in the source and are kept apart here.

Legend:
[1] = tested on: trypsin hyperalgesia, rat hindlimb; experiment: Trypsin Hyperalgesic Assay (THA), rat hindlimb; format: in vivo; conditions: for ED50: po, read-out: THA ED50; for Duration of Analgesia, time in hours to reduce -1.5 × THA ED50 to 40% inhibition: rat
From the text: B. Trypsin Hyperalgesic Assay (THA)

acetic acid writhing [2] = experiment: Acetic Acid Writhing Test (AAWT), rat; format: in vivo; conditions: po, read-out: AAWT ED50
From the text: (§1) A. Acetic Acid Writhing Test (AAWT)
(§2) Using the procedure described by Koster et al. in Fed. Proc. 18, 412 (1959) and Vinegar et al. in Handbook of Experimental Pharmacology, 50-2, ch.

acetic acid writhing [3] = experiment: Acetic Acid Writhing Test (AAWT), mouse; format: in vivo; conditions: po, read-out: AAWT ED50
From the text: as §1, §2

[4] = tested on: carrageenin pleurisy (3 hr exudate volume, mobilized neutrophils); experiment: Carrageenin Pleurisy Assay (CPA); format: in vivo, rat; conditions: for ED50: Rattus norvegicus, Neutrophil, po; for CPA Local activity (inactive at stated dose): inactive at 1.0 mg/rat
Procedure: (§3) A. Carrageenin Pleurisy Assay (CPA)
(§4) Following the procedure described by Vinegar et al. in European J. Rheumatology and Inflammation, 1, 204, (1978) the acute anti-inflammatory activity of the compound of formula (I) was compared with that of known anti-inflammatory drugs. Two assays were performed: in the first, the average 3 hr exudate volume for each drug-treated group was determined and the % inhibition relative to solvent-fed control animals calculated, the ED50 being the dose required to reduce the 3 hr exudate volume by 50%; in the second, the number of mobilized neutrophils was quantified and the % inhibition relative to solvent-fed control animals calculated, the ED50 being the dose required to reduce the number of neutrophils mobilized at 3 hrs by 50%.

[5] = tested on: carrageenin pleurisy in Adrex; experiment: AI activity in Adrex, carrageenin pleurisy p.o.; format: in vivo, rat; conditions: CP p.o.; for AI Activity in Adrex, Vol.: exudate volume
Procedure: as §3, §4

[6] = tested on: yeast-induced hyperthermia; experiment: Yeast-Induced Hyperthermia Assay; format: in vivo, rat; conditions: for ED50: po, rat
From the text: The Yeast-Induced Hyperthermia Assay was used according to the procedure described by Khalili-Varasteh et al. in Arch. Int. Pharmacodyn.

[7] = Acute toxicity assay, mouse; conditions: in vivo
[8] = Acute toxicity assay, rat; conditions: in vivo
Procedure: Four non-fasted male rats of 160-250 gram body weight were used for each dose level. The compound was injected by the indicated route and the symptom onset time, the intensity of the effect and the duration during a 4 hour observation period are recorded. The LD50 estimated is based on a 7 day observation and is determined by the method of Miller and Tainter (Proc. Soc. Exp. Biol. Med. 57:261, 1944).

gastric damage [9] = experiment: Gastric damage in the rat; format: in vivo
hot plate analgesia = experiment: Hot plate assay for strong analgesic activity; conditions: in vivo
hepatic glutathione = experiment: Hepatic glutathione depletion in mouse; format: in vivo; conditions: for Hepatic Gluathione Depletion: @ 40% of LD50, i.p. in mouse, over a 5 hr period
opiate receptors = experiment: Opiate receptor binding in vitro
[10] = tested on: analgesic activity (naloxone); experiment: Naloxone antagonism of analgesic activity; conditions: in vivo
prostaglandin synthetase = experiment: Prostaglandin synthetase inhibition; format: biochemical
lipoxygenase = experiment: Lipoxygenase inhibition; format: biochemical
peroxidase = experiment: Peroxidase inhibition; format: biochemical
platelet aggregation = experiment: Platelet aggregation inhibition
gastric damage [11] = experiment: Gastric damage (general statement); conditions: in vivo
methemoglobinemia [12] = experiment: Methemoglobinemia (cyanosis), rat; conditions: for Methemoglobinemia (Cyanosis): rat, @ 500 mg/kg p.o.
methemoglobinemia [13] = experiment: Methemoglobinemia (cyanosis), dog; conditions: for Methemoglobinemia (Cyanosis): dog
rat liver, rat kidney [14] = experiment: Histopathology, rat liver and kidney; conditions: for Histopathology, Rat Kidney / Histopathology, Rat Liver: @ 40% LD50, i.p.
[15] = tested on: mouse liver, mouse kidney; experiment: Histopathology, mouse liver and kidney
[16] = tested on: mouse liver, mouse kidney; conditions: in vivo, ip
rat liver, rat kidney [17] = conditions: in vivo, ip
[18] = dose reducing 3 hr exudate volume by 50%, read-out: CPA ED50, Vol.

Row | SMILES | ED50 (acetic acid writhing [2]; Rattus norvegicus) [mg/kg] | ED50 (acetic acid writhing [3]; Mus musculus) [mg/kg] | Duration of AI Activity, time in hrs to reduce 2 × CP cell ED50 to 40% inhibition of Vol.: Cells [4] [h] | ED50 ([4]; 3 h, read-out: CPA ED50, Cells) [mg/kg] | ED50 ([4]; 3 h, read-out: CPA ED50, Vol.) [mg/kg] | Duration of AI Activity, time in hrs to reduce 2 × CP cell ED50 to 40% inhibition of Vol.: Vol. [4] [h] | AI Activity in Adrex, Cells [5] | AI Activity in Adrex, Vol. [5] | ED50 [6] [mg/kg] | LD50 at 168 h ([7]; ip) [mg/kg] | LD50 at 168 h ([7]; po) [mg/kg] | LD50 at 168 h ([8]; ip, 7 day observation) [mg/kg] | Activity in hot plate assay for strong analgesic activity (hot plate analgesia) | ED50 ([1]; rat hindlimb, p.o.) [mg/kg] | Duration of Analgesia, time in hours to reduce -1.5 × THA ED50 to 40% inhibition ([1]; p.o.) [h] | ED50 [4, 18] [mg/kg] | CPA Local activity (inactive at stated dose) ([4]; local) | LD50 at 168 h ([8]; po, 7 day observation) [mg/kg] | Methemoglobinemia (Cyanosis) (methemoglobinemia [12]) | Histopathology, Rat Kidney (rat liver, rat kidney [14]) | further results
1 | CC(=O)Oc1ccccc1C(=O)O [Aspirin] | 21 ± 3.4 | 301 ± 21.1 | 3.0 | 75 ± 7.5 | 28 ± 3.2 | 35.0 | Inactive | Active | 50 ± 8.1 | 220 | 1100 | 500 |  |  |  |  |  |  |  |  | Activity in trypsin hyperalgesic assay [1]: essentially inactive; THA activity (inactive at stated dose) ([1]; rat hindlimb, p.o., inactive at 360 mg/kg): Inactive; CPA ED50, Local ([4]; local): 0.04 mg/rat; Gastric damage in the rat (gastric damage [9]; single oral dose of 30 mg/kg): produces ulcers and haemorrhages
2 | COc1ccc2c3c1O[C@H]1[C@@H](O)C=C[C@H]4[C@@H](C2)N(C)CC[C@@]341 [Codeine] |  |  |  |  |  |  |  |  |  |  |  |  | active |  |  |  |  |  |  |  | 
3 | CC(=O)Nc1ccc2c(c1)OCO2 [Compound of formula (I), N-(1,3-benzodioxol-5-yl)acetamide] |  |  | 6 |  |  | 6 | Active | Active | 57 | 250 | 660 | 410 | inactive | 20 ± 5.1 | 8.0 | 34 ± 2.2 | Inactive | 1000 | No | - | Activity in trypsin hyperalgesic assay, I.C.V. ([1]; injected intracerebroventricularly (I.C.V.)): inactive; ED50 (acetic acid writhing [2]; rat, p.o.): 50 ± 0.6 mg/kg; ED50 ([4]; dose reducing neutrophils mobilized at 3 hrs by 50%, read-out: CPA ED50, Cells): 49 ± 6.8 mg/kg; Anti-inflammatory activity in the rat ([4]; carrageenin pleurisy assay): comparable with aspirin; Antipyretic activity in the rat ([6]; yeast-induced hyperthermia): comparable with aspirin and phenacetin; Depletion of hepatic glutathione (hepatic glutathione; mouse): not been shown; Gastric damage in the rat (gastric damage [9]; after 80 mg/kg): does not produce gastric damage; Binding to opiate receptors in vitro (opiate receptors): does not bind to opiate receptors in vitro; Inhibition of analgesic activity by naloxone [10]: not inhibited by naloxone; Prostaglandin synthetase inhibition (prostaglandin synthetase): is not a prostaglandin synthetase, lipoxygenase or peroxidase inhibitor; Lipoxygenase inhibition (lipoxygenase): is not a prostaglandin synthetase, lipoxygenase or peroxidase inhibitor; Peroxidase inhibition (peroxidase): is not a prostaglandin synthetase, lipoxygenase or peroxidase inhibitor; Platelet aggregation inhibition (platelet aggregation): does not produce the gastric damage or platelet aggregation inhibition; Gastric damage associated with aspirin-like drugs (gastric damage [11]): does not produce the gastric damage; Methemoglobinaemia (methemoglobinemia [12]; rats, high oral doses): not been shown; Methemoglobinemia (Cyanosis) (methemoglobinemia [13]; @ 200 mg/kg p.o.): Slight; Methemoglobinaemia (methemoglobinemia [13]; dogs, high dose levels): has produced methemoglobinaemia in dogs at high dose levels; Histopathology, Rat Liver (rat liver, rat kidney [14]): -; Histopathological evidence of hepatic or renal damage (rat liver, rat kidney [14]; rat): not been shown to produce histopathological evidence of hepatic or renal damage; Histopathological evidence of hepatic or renal damage ([15]; mouse): not been shown to produce histopathological evidence of hepatic or renal damage
4 | CC(=O)Nc1ccc(O)cc1 [Acetaminophen] |  |  | 3.8 |  |  | 2.2 | Weakly Active | Active | 72 ± 8.6 | 880 | 1640 |  |  | 95 ± 17.2 |  | 172 ± 22.4 | Inactive |  | No |  | ED50 (acetic acid writhing [3]; mouse, p.o.): 301 ± 11.5 mg/kg; LD50 at 168 h ([8]; ip): 1640 mg/kg; Hepatic Gluathione Depletion (hepatic glutathione): + (90% depletion over a 5 hr period); Histopathology, Mouse Kidney [16]: +; Histopathology, Mouse Liver [16]: +; Histopathology, Rat Kidney (rat liver, rat kidney [17]): +; Histopathology, Rat Liver (rat liver, rat kidney [17]): +; Methemoglobinemia (Cyanosis) (methemoglobinemia [13]; @ 100 mg/kg p.o.): No
5 | CCOc1ccc(NC(C)=O)cc1 [Phenacetin, p-ethoxyacetanilide] | 46 ± 10.1 | 116 ± 14.5 | 7.0 | 110 ± 15.5 | 102 ± 14.6 | 10.5 | Inactive |  | 55 ± 28.6 | 620 | 2500 | 900 |  |  | 5.7 |  | Inactive | 2900 | Yes | - | ED50 ([1]; Rattus norvegicus): 69 ± 11.6 mg/kg; Hepatic Gluathione Depletion (hepatic glutathione): + (90% depletion over a 5 hr period); Methemoglobinemia (Cyanosis) (methemoglobinemia [13]; @ 100 mg/kg p.o.): Yes; Methemoglobinaemia (methemoglobinemia [13]; relatively low dose levels): produces severe methemoglobinaemia at relatively low dose levels; Histopathology, Rat Liver (rat liver, rat kidney [14]): -; Histopathology, Mouse Kidney ([15]; @ 40% LD50, i.p.): -; Histopathology, Mouse Liver ([15]; @ 40% LD50, i.p.): -
6 | CN1CC[C@]23c4c5ccc(O)c4O[C@H]2[C@@H](O)C=C[C@H]3[C@H]1C5 [Morphine] |  |  |  |  |  |  |  |  |  |  |  |  | active |  |  |  |  |  |  |  | 
